These results are taken from US9284350B2, “IAP BIR domain binding compounds” (Pharmascience Inc., priority 2010, dated 2016).

Assay [1] deals with T1, cIAP2 (Homo sapiens, UniProt Q13489).
T1 construct: GST (N); made in house; host or cells: E. coli DH5α
Description: Fluorescence polarization-based competition assay, cIAP2. The class given is binding. The following applies: FP assay, ki derived from IC50. As for the experimental part:
(§1) Binding of compounds of Formula 1 to target BIR domains was measured using a fluorescence-polarization (FP) assay. Fluorescence-polarization was evaluated using a GENios microplate reader (TECAN) Pro instrument with the excitation filter set at 485 nm and the emission filter set at 535 nm. The final amount of protein used in the assay corresponds to the amount of protein necessary to obtain 80% of the maximum FP value in a P1 or P2 fluorescent (FITC) probe saturation experiment. The compounds potency (IC50) and selectivity, was assessed in the presence of the amount of target protein established, fluorescent probe, and a 10 point serial dilution in assay buffer (50 mM Hepes, pH 7.5, 250 mcg/mL γ-globulin, 2 mM DTT, 1% DMSO) of the selected compounds.
(§2) Assays were carried out in duplicate using untreated black 96-well plates (Corning #3915) and a total volume of 100 microliters, containing 25 microliters of fluorescent probe at a final concentration of 2 nM in assay buffer, 25 microliters of diluted compound, 25 microliters of BIR protein into assay buffer and 25 microliters of assay buffer. Buffer only (blank) or probe only in buffer (G-factor) were used as controls for calibration. The plate was incubated at room temperature in the dark for one hour and FP values in millipolarization units (mP) were recorded using Genios Pro FP reader.
(§3) The measured FP values (mP) were then plotted against compound concentration, and IC50 values were calculated based on a sigmoidal dose-response (variable-slope) curve fit using GraphPad Prism version 4.02 for Windows, GraphPad Software, San Diego Calif. USA and/or CambridgeSoft BioAssay Enterprise Version 10.1. The IC50 value is the concentration of test compound at which 50% of the tracer was displaced. ki values were derived from the calculated IC50 values as described above and according to the equation described in Nikolovska-Coleska, Z. (2004) Anal Biochem 332, 261-273. The results are presented in Table 2, wherein A=less than 25 nM; B=less than 250 nM; C=less than 1000 nM; and D=greater than 1000 nM.

Assay [2] has as its system Colorectal carcinoma HCT116 cells. Nature of the assay: Cell death assay (MTT) in combination with HGS ETR1. It counts as cell-based. The note with it: with HGS ETR1 30 ng/ml, 72 hours, read-out: HCT116+ mapatubimap EC50. As to the method:
Colorectal carcinoma HCT116 cells were cultured as monolayers in 96 well plates at a density of 2000 cells per well in McCoy's 5a medium (HyClone) supplemented with 2.2 g/L sodium bicarbonate, 10% FBS (HyClone) and 1% penicillin/streptomycin (HyClone). 24 hours later, triplicate wells were treated with HGS ETR1 (30 ng/ml) in combination with compound. Cells were incubated in the presence of compound and HGS agonistic Trail receptor antibody, ETR1 (Mapatumamab, 30 ng/ml) for 72 hours. Metabolic viability of remaining cells was assessed by MTT (thiazolyl blue tetrazolium bromide, Sigma) assay.
EC50 values (50% cell survival in the presence of compound as compared to untreated controls) were calculated from survival curves using BioAssay software (CambridgeSoft) and GraphPad Prism (Graph Pad Software Inc.). The results are provided in Table 3, below, wherein A=less than 50 nM; B=less than 250 nM; C=less than 1000 nM; and D=greater than 1000 nM.

In assay [3] the target is T2, c-IAP1 (Homo sapiens, UniProt Q13490).
T2 construct: GST (N); made in house; host or cells: E. coli DH5α
T2 sequence (Q13490 251-363): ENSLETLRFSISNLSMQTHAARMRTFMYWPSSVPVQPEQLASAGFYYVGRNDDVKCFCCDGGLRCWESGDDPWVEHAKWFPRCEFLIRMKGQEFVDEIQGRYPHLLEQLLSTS
Description: Fluorescence polarization-based competition assay, c-IAP1. It counts as binding. The note with it: FP assay, ki derived from IC50. As to the method:
as §1, §2, §3

Assay [4] addresses T3, XIAP (Homo sapiens, UniProt P98170).
T3 construct: fused on or other part: GST tag at the N-terminus (pGEX4T vectors)
Description: Fluorescence polarization-based competition assay, XIAP. The class given is binding. The following applies: FP assay, ki derived from IC50. As for the experimental part:
as §1, §2, §3

T3 sequence (P98170 246-497 limits assumed): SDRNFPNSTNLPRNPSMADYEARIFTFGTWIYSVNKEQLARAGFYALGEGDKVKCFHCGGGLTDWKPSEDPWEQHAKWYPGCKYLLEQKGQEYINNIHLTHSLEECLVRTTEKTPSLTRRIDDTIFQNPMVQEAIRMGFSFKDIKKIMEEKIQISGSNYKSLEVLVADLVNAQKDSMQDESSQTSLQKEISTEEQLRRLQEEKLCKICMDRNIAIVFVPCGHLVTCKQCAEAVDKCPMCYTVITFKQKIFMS
T1 sequence (Q13489 236-349): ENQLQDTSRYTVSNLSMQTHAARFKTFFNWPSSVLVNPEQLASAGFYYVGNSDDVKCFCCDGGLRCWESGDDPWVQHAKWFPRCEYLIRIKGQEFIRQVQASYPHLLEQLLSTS

In the case of `CN[C@@H](C)C(=O)N[C@H](C(=O)N1C[C@@H](NC(=O)c2ccccc2)C[C@H]1CN(CCc1ccc(F)cc1)C(=O)c1cn2cccnc2n1)C(C)(C)C` [Compound 49], the Ki in assay [1] was less than 0.025 µM; in assay [3], less than 0.025 µM; in assay [4] it was less than 1 µM. The EC50 in assay [2] was less than 0.25 µM.

Turning to `CN[C@@H](C)C(=O)N[C@H](C(=O)N1CCC[C@H]1CN(CCc1ccccc1)C(=O)c1cn2cc(F)ccc2n1)C(C)(C)C` [Compound 32], the figures for the Ki in assay [1], in assay [3] and in assay [4] were less than 0.025 µM, less than 0.025 µM and less than 0.25 µM, respectively. Besides, the EC50 in assay [2] was less than 0.25 µM.

With `CN[C@@H](C)C(=O)N[C@H](C(=O)N1CCC[C@H]1CN(CCc1ccc(F)cc1)C(=O)c1ncc(-c2ccccc2)o1)C(C)(C)C` [Compound 123], the Ki is less than 0.025 µM in assay [1], less than 0.025 µM in assay [3] and less than 0.25 µM in assay [4]. Moreover, in assay [2], the EC50 is less than 0.05 µM.

As for `CN[C@@H](C)C(=O)N[C@H](C(=O)N1C[C@@H](Oc2ccc(OC)cc2)C[C@H]1CN(CCc1ccc(F)cc1)C(=O)c1cn2ccccc2n1)C(C)(C)C` [Compound 105], the Ki in assay [1], in assay [3] and in assay [4] was less than 0.025 µM in each case. Also, the EC50 in assay [2] was less than 0.05 µM.

Take `CN[C@@H](C)C(=O)N[C@H](C(=O)N1C[C@@H](NC(C)=O)C[C@H]1CN(CCc1ccc(F)cc1)C(=O)c1cn2cccnc2n1)C(C)(C)C` [Compound 55]: the Ki in assay [1] was less than 0.025 µM; in assay [3] it was less than 0.025 µM; in assay [4], less than 0.25 µM. Also, the EC50 in assay [2] is greater than 1 µM.

In the case of `CN[C@@H](C)C(=O)N[C@H](C(=O)N1CCC[C@H]1CN(CCc1ccc(F)cc1)C(=O)c1cn(-c2ccccc2)nn1)C(C)(C)C` [Compound 50], the Ki in assay [1] was less than 0.025 µM; in assay [3], less than 0.025 µM; in assay [4], less than 0.25 µM. The EC50 in assay [2] was less than 0.25 µM.

With `CN[C@@H](C)C(=O)N[C@H](C(=O)N1CCC[C@H]1CN(CCc1ccc(F)cc1)C(=O)c1cn(C2CCCCC2)cn1)C(C)(C)C` [Compound 93], the results for the Ki in assay [1], in assay [3] and in assay [4] were less than 0.025 µM, less than 0.025 µM and less than 0.25 µM, respectively. In addition, the EC50 in assay [2] is less than 0.05 µM.

With `CN[C@@H](C)C(=O)N[C@H](C(=O)N1CCC[C@H]1CN(CCc1ccc(F)cc1)C(=O)c1cn(C2CCCC2)cn1)C(C)(C)C` [Compound 91], the Ki in assay [1] is less than 0.025 µM; in assay [3], less than 0.025 µM; in assay [4], less than 0.25 µM. Also, the EC50 in assay [2] is less than 0.05 µM.

For the molecule `CN[C@@H](C)C(=O)N[C@H](C(=O)N1C[C@@H](Oc2ccc(F)cc2)C[C@H]1CN(CCc1ccc(F)cc1)C(=O)c1cn2ccccc2n1)[C@@H](C)OC` [Compound 102], the results for the Ki in assay [1], in assay [3] and in assay [4] were less than 0.025 µM, less than 0.025 µM and less than 0.25 µM, respectively. Also, the EC50 in assay [2] was less than 0.05 µM.

Consider `CN[C@@H](C)C(=O)N[C@H](C(=O)N1C[C@@H](NC(=O)c2ccccc2)C[C@H]1CN(CCc1ccc(F)cc1)C(=O)c1cn(C)cn1)C(C)(C)C` [Compound 86], for which the Ki in assay [1] is less than 0.025 µM; in assay [3], less than 0.025 µM; in assay [4], less than 0.25 µM. Besides, in assay [2], the EC50 is less than 0.05 µM.

In the case of `CN[C@@H](C)C(=O)N[C@H](C(=O)N1C[C@@H](NC(C)=O)C[C@H]1CN(CCc1ccc(F)cc1)C(=O)c1cn2ccccc2n1)C(C)(C)C` [Compound 70], the figures for the Ki in assay [1], in assay [3] and in assay [4] were less than 0.25 µM, less than 0.025 µM and less than 1 µM, respectively. The EC50 in assay [2] was less than 1 µM.

As for `CN[C@@H](C)C(=O)N[C@H](C(=O)N1CCC[C@H]1CN(CCc1cccc(F)c1)C(=O)c1cn2cccnc2n1)C(C)(C)C` [Compound 12], the Ki in assay [1] was less than 0.25 µM; in assay [3], less than 0.025 µM; in assay [4], less than 1 µM. The EC50 in assay [2] is less than 0.25 µM.

Consider `CN[C@@H](C)C(=O)N[C@H](C(=O)N1CCC[C@H]1CN(CCc1ccc(F)cc1)C(=O)c1cncn1C)C(C)(C)C` [Compound 92], for which the Ki in assay [1] is less than 0.25 µM; in assay [3], less than 0.025 µM; in assay [4], less than 1 µM. Moreover, the EC50 in assay [2] was less than 0.25 µM.
